# pIC50: −log10 of the molar value.
# Target: JAK1 (Homo sapiens (Human), UniProt P23458)
# Assay: Jak biochemical HTRF assay, JAK1
# Conditions: HTRF biochemical assay, recombinant GST-tagged catalytic domain; read-out: JAK1 IC50
# Procedure: Jak Biochemical HTRF Assay Protocol
# The ability of compounds to inhibit the activity of JAK1, JAK2, JAK3, and Tyk2 was measured using a recombinant purified GST-tagged catalytic domain for each enzyme (Invitrogen JAK1 #M4290, JAK2 #M4290, JAK3 #M4290, Tyk2 #M4290) in an HTRF format biochemical assay. […] The basic assay protocol is as follows: First, 250 nL of diluted compounds in DMSO were dispensed into the wells of a dry 384-well Black plate (Greiner #781076) using a Labcyte Echo 555 acoustic dispenser. Subsequent reagent additions employed an Agilent Bravo. […] After equilibration, 2 μL of 10×ATP in 1× assay buffer was added to initiate the kinase reaction and the plates were shaken and then incubated at room temperature for 120 minutes. […] Plates were shaken and centrifuged and then incubated 60 minutes at room temperature and then read on a Perkin Elmer Envision (λex=337 nm, λem=665 and 615 nm, TRF delay time=20 μs). HTRF signal=10,000*665 nm reading/615 nm reading. After normalization to untreated controls, the percent inhibition of the HTRF signal at each compound concentration was calculated. The plot of percent inhibition versus the log of compound concentration was fit with a 4-parameter dose response equation to calculate IC50 values.
# Final Reaction Conditions were:
# Examples of the instant invention were evaluated in JAK1 and JAK2 in vitro binding assays.
# Sequence of JAK1 (P23458 875-1153): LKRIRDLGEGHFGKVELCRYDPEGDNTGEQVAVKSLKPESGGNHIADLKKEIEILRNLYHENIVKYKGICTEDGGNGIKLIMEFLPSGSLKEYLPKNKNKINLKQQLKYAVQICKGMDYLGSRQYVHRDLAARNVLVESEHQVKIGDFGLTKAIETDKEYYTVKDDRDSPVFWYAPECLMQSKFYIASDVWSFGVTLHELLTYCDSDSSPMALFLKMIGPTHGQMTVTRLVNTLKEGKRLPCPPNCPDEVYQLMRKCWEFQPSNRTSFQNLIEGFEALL
row,SMILES,pIC50
1,"CC(C)(C)N1Cc2cc(Nc3nn([C@H]4CCCCC[C@@H]4C#N)c4cc[nH]c(=O)c34)ccc2S1(=O)=O (single isomer, unassigned) [Example 3-176, (1S,2S or 1R,2R)-2-{3-[(2-tert-butyl-1,1-dioxido-2,3-dihydro-1,2-benzisothiazol-5-yl)amino]-4-oxo-4,5-dihydro-1H-pyrazolo[4,3-c]pyridin-1-yl}cycloheptanecarbonitrile]",8.72
2,"C[C@H](N[C@H]1CC[C@H](n2nc(Nc3ccc(C(F)(F)F)cc3)c3c(=O)[nH]ccc32)[C@@H](C#N)C1)C1CC1 [Example 5-12, (1S,2S,5S)-5-(((S)-1-cyclopropylethyl)amino)-2-(4-oxo-3-((4-(trifluoromethyl)phenyl)amino)-4,5-dihydro-1H-pyrazolo[4,3-c]pyridin-1-yl)cyclohexanecarbonitrile]",8.92
3,"CC1c2cc(Nc3nn([C@H]4CCCC[C@@H]4C#N)c4cc[nH]c(=O)c34)ccc2S(=O)(=O)N1CC(F)(F)F (single isomer, unassigned) [Example 3-129, (1S,2S)-2-(3-(((R or S)-3-methyl-1,1-dioxido-2-(2,2,2-trifluoroethyl)-2,3-dihydrobenzo[d]isothiazol-5-yl)amino)-4-oxo-4,5-dihydro-1H-pyrazolo[4,3-c]pyridin-1-yl)cyclohexanecarbonitrile]",8.96
4,"CC1(C)C(O)c2cc(Nc3nn([C@H]4CCCC[C@@H]4C#N)c4cc[nH]c(=O)c34)ccc2S1(=O)=O (single isomer, unassigned) [Example 3-173, (1S,2S)-2-(3-{[(3R or 3S)-3-hydroxy-2,2-dimethyl-1,1-dioxido-2,3-dihydro-1-benzothiophen-5-yl]amino}-4-oxo-4,5-dihydro-1H-pyrazolo[4,3-c]pyridin-1-yl)cyclohexanecarbonitrile]",10.03
5,"CC(C)(C)[S@+]([O-])N[C@H](c1ccc(Nc2nn([C@H]3CCCC[C@@H]3C#N)c3cc[nH]c(=O)c23)cc1)C(F)(F)F [Example 3-56, N-{(1R)-1-[4-({1-[(1S,2S)-2-cyanocyclohexyl]-4-oxo-4,5-dihydro-1H-pyrazolo[4,3-c]pyridin-3-yl}amino)phenyl]-2,2,2-trifluoroethyl}-2-methylpropane-2-sulfinamide]",9.51
6,"CC(C)(CCO)N1Cc2cc(Nc3nn([C@H]4CCCC[C@@H]4C#N)c4cc[nH]c(=O)c34)ccc2S1(=O)=O [Example 3-81, (1S,2S)-2-(3-{[2-(3-hydroxy-1,1-dimethylpropyl)-1,1-dioxido-2,3-dihydro-1,2-benzisothiazol-5-yl]amino}-4-oxo-4,5-dihydro-1H-pyrazolo[4,3-c]pyridin-1-yl)cyclohexanecarbonitrile]",10.26
7,"CC(C)S(=O)(=O)c1ccc(Nc2nn([C@H]3CCCC[C@@H]3C#N)c3cc[nH]c(=O)c23)cc1 [Example 3-141, (1S,2S)-2-[3-({4-[(1-methylethyl)sulfonyl]phenyl}amino)-4-oxo-4,5-dihydro-1H-pyrazolo[4,3-c]pyridin-1-yl]cyclohexanecarbonitrile]",9.82
8,"CC(C)(C)OC(=O)C1CCC(N2Cc3cc(Nc4nn([C@H]5CCCC[C@@H]5C#N)c5cc[nH]c(=O)c45)ccc3C2=O)CC1 (single isomer, unassigned) [Example 3-134, (cis or trans)tert-butyl 4-(5-((1-((1S,2S)-2-cyanocyclohexyl)-4-oxo-4,5-dihydro-1H-pyrazolo[4,3-c]pyridin-3-yl)amino)-1-oxoisoindolin-2-yl)cyclohexanecarboxylate]",9.80
9,"N#C[C@H]1CCCC[C@@H]1n1nc(Nc2ccc(F)cc2)c2c(=O)[nH]ccc21 (racemic) [Example 2-1, (trans)-2-{3-[(4-Fluorophenyl)amino]-4-oxo-4,5-dihydro-1H-pyrazolo[4,3-c]pyridin-1-yl}cyclohexanecarbonitrile]",9.25
10,"CC(C)(CO)CN1Cc2cc(Nc3nn([C@H]4CCCC[C@@H]4C#N)c4cc[nH]c(=O)c34)ccc2S1(=O)=O [Example 3-82, (1S,2S)-2-(3-{[2-(3-hydroxy-2,2-dimethylpropyl)-1,1-dioxido-2,3-dihydro-1,2-benzisothiazol-5-yl]amino}-4-oxo-4,5-dihydro-1H-pyrazolo[4,3-c]pyridin-1-yl)cyclohexanecarbonitrile]",9.96
11,"CC(C)OC(=O)C(C)(C)C(O)(c1ccc(Nc2nn([C@H]3CCCC[C@@H]3C#N)c3cc[nH]c(=O)c23)cc1)C(F)(F)F (single isomer, unassigned) [Example 3-120, (R or S) Isopropyl 3-(4-((1-((1S,2S)-2-cyanocyclohexyl)-4-oxo-4,5-dihydro-1H-pyrazolo[4,3-c]pyridin-3-yl)amino)phenyl)-4,4,4-trifluoro-3-hydroxy-2,2-dimethylbutanoate]",9.00
12,"N#C[C@H]1CCCC[C@@H]1n1nc(Nc2ccc3c(c2)C(O)(CO)CCS3(=O)=O)c2c(=O)[nH]ccc21 (stereo partly drawn) [Example 3-48, (1S,2S)-2-(3-{[4-hydroxy-4-(hydroxymethyl)-1,1-dioxido-3,4-dihydro-2H-thiochromen-6-yl]amino}-4-oxo-4,5-dihydro-1H-pyrazolo[4,3-c]pyridin-1-yl)cyclohexanecarbonitrile]",7.74
13,CC(C)(C)[S@@+]([O-])N[C@@H](c1ccc(Nc2nn([C@H]3CCCC[C@@H]3C#N)c3cc[nH]c(=O)c23)cc1)C(F)(F)F (stereo in doubt) [Example 3-55],9.28

# Now from value to molecule:
row,pIC50,SMILES
1,9.68,"CC(c1ccc(Nc2nn([C@H]3CCCC[C@@H]3C#N)c3cc[nH]c(=O)c23)cc1)n1ccnn1 (single isomer, unassigned) [Example 15-41, (1S,2S)-2-[4-oxo-3-({4-[(1R or 1S)-1-(1H-1,2,3-triazol-1-yl)ethyl]phenyl}amino)-4,5-dihydro-1H-pyrazolo[4,3-c]pyridin-1-yl]cyclohexanecarbonitrile]"
2,9.96,"N#C[C@H]1CCCC[C@@H]1n1nc(Nc2ccc(C3(C(F)(F)F)CCCN3)cc2)c2c(=O)[nH]ccc21 (single isomer, unassigned) [Example 15-62, (1S,2S)-2-[4-oxo-3-({4-[(2S or 2R)-2-(trifluoromethyl)pyrrolidin-2-yl]phenyl}amino)-4,5-dihydro-1H-pyrazolo[4,3-c]pyridin-1-yl]cyclohexanecarbonitrile]"
3,9.28,N#C[C@H]1CCCC[C@@H]1n1nc(Nc2ccc([C@]3(O)CC[C@H](C(=O)O)CC3)cc2)c2c(=O)[nH]ccc21 [Example 17-2]
4,9.44,"CC(C)C(c1ccc(Nc2nn([C@H]3CCCC[C@@H]3C#N)c3cc[nH]c(=O)c23)cc1)n1nccn1 (single isomer, unassigned) [Example 15-30, (1S,2S)-2-[3-({4-[(1S or 1R)-2-methyl-1-(2H-1,2,3-triazol-2-yl)propyl]phenyl}amino)-4-oxo-4,5-dihydro-1H-pyrazolo[4,3-c]pyridin-1-yl]cyclohexanecarbonitrile]"
5,9.24,"CC1NCc2cc(Nc3nn([C@H]4CCCC[C@@H]4C#N)c4cc[nH]c(=O)c34)ccc21 (single isomer, unassigned) [Example 12-4, (1S,2S)-2-(3-{[(1S or 1R)-1-methyl-2,3-dihydro-1H-isoindol-5-yl]amino}-4-oxo-4,5-dihydro-1H-pyrazolo[4,3-c]pyridin-1-yl)cyclohexanecarbonitrile]"
6,9.38,"N#C[C@@H]1CCCCC[C@H]1n1nc(Nc2ccc3c(c2)CN(C(=O)N2CCCCC2)C3)c2c(=O)[nH]ccc21 (single isomer, unassigned) [Example 15-53, (1R,2R or 1S,2S)-2-(4-oxo-3-{[2-(piperidin-1-ylcarbonyl)-2,3-dihydro-1H-isoindol-5-yl]amino}-4,5-dihydro-1H-pyrazolo[4,3-c]pyridin-1-yl)cycloheptanecarbonitrile]"
7,9.09,"CC1NCc2cc(Nc3nn([C@H]4CCCC[C@@H]4C#N)c4cc[nH]c(=O)c34)ccc21 (mixture of isomers) [Example 12-3, (1S,2S)-2-(3-{[(1S and 1R)-1-methyl-2,3-dihydro-1H-isoindol-5-yl]amino}-4-oxo-4,5-dihydro-1H-pyrazolo[4,3-c]pyridin-1-yl)cyclohexanecarbonitrile]"
8,10.16,"N#C[C@H]1CCC[C@@H]1n1nc(Nc2ccc(C3(C(F)(F)F)CCCCN3)cc2)c2c(=O)[nH]ccc21 (single isomer, unassigned) [Example 15-71, (1S,2S)-2-[4-oxo-3-({4-[(2S or 2R)-2-(trifluoromethyl)piperidin-2-yl]phenyl}amino)-4,5-dihydro-1H-pyrazolo[4,3-c]pyridin-1-yl]cyclopentanecarbonitrile]"
9,8.82,"N#C[C@H]1CCCC[C@@H]1n1nc(Nc2cccc(CN)c2)c2c(=O)[nH]ccc21 [Example 6-1, (1S,2S)-2-(3-((3-(Aminomethyl)phenyl)amino)-4-oxo-4,5-dihydro-1H-pyrazolo[4,3-c]pyridin-1-yl)cyclohexanecarbonitrile]"
10,10.24,"N#C[C@H]1CCCC[C@@H]1n1nc(Nc2ccc3c(c2)CN(C2CCOCC2)S3(=O)=O)c2c(=O)[nH]ccc21 [Example 15-44, (1S,2S)-2-(3-{[1,1-dioxido-2-(tetrahydro-2H-pyran-4-yl)-2,3-dihydro-1,2-benzisothiazol-5-yl]amino}-4-oxo-4,5-dihydro-1H-pyrazolo[4,3-c]pyridin-1-yl)cyclohexanecarbonitrile]"

# From patent US9725445B2, “Cycloalkyl nitrile pyrazolo pyridones as Janus kinase inhibitors” (Merck Sharp & Dohme Corp., priority 2013, dated 2017)
